From patent US20100168085A1, “Dopamine and agonists and antagonists thereof for modulation of suppressive activity of CD4+CD25+ regulatory T cells” (YESA RESEARCH AND DEVELOPMENT CO. LTD. at the Weizmann …, priority 2003, published 2010)

Tests used:
[1] = system: migration of T cells towards SDF-1
Experimental: The migration of T cells across polycarbonate filters (pore size 5 μm, diameter 6.5 mm) towards SDF-1 and MDC (CCL22) was assayed in 24-well Transwell chambers (Costar, Corning, Corning, N.Y.). T lymphocytes (1.67×10^6 cells/mL) were suspended in RPMI/0.1% BSA, and 150 μL of the cell suspension was added to the upper chamber after incubation with or without dopamine (90 min, 37° C.). Chemokines were added to the lower chamber at concentrations of 1 μg/mL SDF-1 (CytoLab, Israel) and 0.25 μg/mL MDC (R&D Systems). The plates were incubated for 90 min at 37° C. in 9.5% CO2. […] The numbers of migrating T cells were measured by flow cytometer acquisition for a fixed time (60 s). To calculate specific migration, the number of cells in each subpopulation in the absence of chemokine was subtracted from the number in the corresponding cell subpopulation that migrated in the presence of chemokines. The number of migrating CD4^+CD25^+ T cells was calculated as a percentage of the total T cell population before migration. For migration of purified population we used a similar protocol.
We also examined the migration of a mixed T cell population towards SDF-1.

[2] = system: IL-10 production by Treg; conditions: 10^−5 M; 24 h, 48 h and 72 h
Experimental: (§1) (x) Enzyme-linked immunosorbent assay. Treg or Teff (0.5×10^6 cells/ml) were cultured for 48 h in the presence of anti-CD3 and anti-CD28. After 48 h the cells were centrifuged and their supernatants were collected and sampled. Concentrations of IL-2 in the samples were determined by the use of sandwich enzyme-linked immunosorbent assay (ELISA) kits (R&D Systems, Minneapolis, Minn.). For detection of secreted IL-10 cells were centrifuged every 24 h and replaced with a fresh medium. Supernatants obtained from cells after 24, 48 and 72 h in culture were subjected to ELISA kit (Diaclone Research, Fleming, France). The plates were developed using a 3,3′,5,5′-tetramethyl-benzidine liquid substrate system (Sigma, St. Louis, Mo.). The reaction was stopped by adding 1M H3PO4. Results for each experiment were calculated as the amount of secreted cytokine per 1 ml of sample, after subtraction of the background levels of the medium.

[3] = system: phospho-ERK1/2 in Treg and Teff; test: ERK1/2 phosphorylation (intracellular FACS staining, Western blot); type: cell-based, mouse
Experimental: (ix) FACS analysis of intracellular labeling of phosphorylated form of ERK. T-cell subpopulations were fixed in 1.5% formaldehyde for 10 min at room temperature, washed, resuspended with vortexing in cold 100% methanol, and incubated for 1 h at 4° C. The cells were then washed with PBS containing 1% bovine serum albumin (BSA) and resuspended in 100 μL of PBS/BSA, and 12.5 μL of anti-phosphoERK1 & 2 (BioSource) was added for 20 min at room temperature. The cells were then washed, resuspended in PBS, and analyzed by FACSCalibur (Becton-Dickinson). As a negative control we incubated the phospho-peptide for 20 min with its antibody and then added the mixture to T cells.
(xix) Western blotting. Cells were stimulated for 20 min with anti-CD3 and anti-CD28 antibodies in the presence or absence of dopamine or SKF-38393. Cell lysates were prepared using RIPA lysis buffer (50 mM Tris, pH 8; 0.1% SDS; 0.5% deoxycholate; 1% NP40; 500 mM NaCl; 10 mM MgCl2) and were then kept on ice for 10 min before being vortexed and centrifuged. Supernatants were collected and 5× sample buffer (containing 25 mM Tris pH 6.8, 2% sodium dodecyl sulfate (SDS), 10% glycerol, 0.1% bromophenol blue, 0.5 M β-mercaptoethanol) was added prior to boiling. Cell extracts were separated by SDS-PAGE (10% polyacrylamide), and blotted onto nitrocellulose. Activated ERK1/2 was detected by probing blots with a 1:30,000 dilution of monoclonal antibody. Total ERK protein was detected by using a 1:10,000 dilution of a polyclonal rabbit antibody. The blots were developed by horseradish peroxidase-conjugated anti-mouse or anti-rabbit Fab and ECL (Amersham). Signals were quantified using NIH Image 1.62.
Treg were activated for 20 min in the presence or absence of dopamine (10^−5 M), and were then subjected to intracellular phosphoprotein staining (Perez and Nolan 2002) and analyzed by flow cytometry. […] As a measure of the background nonspecific staining of the phosphorylated ERK we used a specific peptide of phospho-ERK, which competes for binding of the antibody. The intracellular staining procedure for phospho-ERK detection by FACS was validated by the use of Teff incubated with 20 μM phorbol 12-myristate 13-acetate (PMA), known to stimulate the activity of protein kinase C (PKC) (data not shown).

[4] = system: IL-2 production by Treg and Teff; conditions: media conditioned 48 h, without mrIL-2
Experimental: as §1
It should be noted that activation of both T cell populations was carried out in the absence of mrIL-2.

[5] = system: BALB/c mice, optic nerve crush injury; conditions: 0.4 mg/kg immediately after severe optic nerve crush, two weeks later; vehicle 789±23
Text: (iv) Retrograde labeling of retinal ganglion cells. Mice were anesthetized and placed in a stereotactic device. The skull was exposed and kept dry and clean. The bregma was identified and marked. The designated point of injection was at a depth of 2 mm from the brain surface, 2.92 mm behind the bregma in the anteroposterior axis and 0.5 mm lateral to the midline. A window was drilled in the scalp above the designated coordinates in the right and left hemispheres. The neurotracer dye FluoroGold (5% solution in saline; Fluorochrome, Denver, Colo.) was applied (1 μL, at a rate of 0.5 μL/min in each hemisphere) using a Hamilton syringe, and the skin over the wound was sutured.
(xxi) Assessment of mouse retinal ganglion cell survival. Mice were given a lethal dose of pentobarbitone (170 mg/kg). Their eyes were enucleated and the retinas were detached and prepared as flattened whole mounts in 4% paraformaldehyde solution. Labeled cells from 4-6 selected fields of identical size (0.7 mm^2) were counted. The selected fields were located at approximately the same distance from the optic disk (0.3 mm) to overcome the variation in RGC density as a function of distance from the optic disk. Fields were counted under the fluorescence microscope (magnification ×800) by observers blinded to the identity of the retinas. The average number of RGCs per field in each retina was calculated.

[6] = system: Treg; test: Treg apoptosis (propidium iodide sub-G1, annexin V, FACS); type: cell-based, mouse
Experimental: (viii) FACS analysis of annexin V-positive regulatory T cells. PE-stained CD25^+ cells were stained for annexin V-FITC according to the manufacturer's instructions. The cells were scored as described above, and CD25^+ lymphocytes were then gated for analysis of annexin V-positive cells.
(xv) Propidium iodide staining. Cells were fixed in cold ethanol 80% and treated with RNAse. Propidium iodide was then applied, and cell samples were assessed by FACSort.

[7] = system: CXCR-4 and CCR-8 mRNA in Treg; conditions: data not shown
[8] = system: D5-R transcripts in Treg and Teff; conditions: 2 h with 10^−5 M
Experimental: (§2) (xx) Polymerase chain reaction (PCR). Total RNA was purified with the RNeasy Mini Kit (Qiagen, Germantown, Md.) and transcribed into cDNA using poly dT primers. For PCR the following primers were used: […]
(§3) This was done by assaying the expression of the dopamine type-1 receptors, D1-R and D5-R, in Treg and Teff, in the absence and in the presence of dopamine (incubation of the cells for 2 h with 10^−5 M dopamine).

[9] = system: D1-R transcripts in Treg and Teff; conditions: 2 h with 10^−5 M
Experimental: as §2, §3

[10] = system: suppressive activity of CD4+CD25+ regulatory T cells (Treg) on Teff proliferation; test: Inhibition assay (co-culturing of Teff with Treg), [3H]-thymidine incorporation; type: cell-based, mouse; conditions: for Inhibitory effect on Treg activity: freshly isolated (nonactivated) Treg; for Effect on Treg suppressive activity: activated Treg
Experimental: (xvi) Activation of CD4^+CD25^+ regulatory T cells. Purified regulatory T cells (Treg; 0.5×10^6 cells/mL) were activated in RPMI medium supplemented with L-glutamine (2 mM), 2-mercaptoethanol (5×10^−5 M), sodium pyruvate (1 mM), penicillin (100 IU/mL), streptomycin (100 μg/mL), nonessential amino acids (1 mL/100 mL), and autologous serum 2% (vol/vol) in the presence of mrIL-2 (5 ng/mL) and soluble anti-CD3 antibodies (1 ng/mL). Irradiated (2500 rad) splenocytes (1.5×10^6 cells/mL) were added to the culture. Cells were activated for 24 or 96 h. In some of the 96-h experiments, fresh dopamine was added to the culture every 24 h during activation.
(xvii) Inhibition assay (co-culturing of Teff with Treg). Naïve effector T cells (Teff; 50×10^3 cells/well) were co-cultured with decreasing numbers of activated Treg for 72 h in 96-well flat-bottomed plates in the presence of irradiated splenocytes (10^6/mL) supplemented with anti-CD3 antibodies. [^3H]-thymidine (1 μCi) was added for the last 16 h of culture. After the cells were harvested, their [^3H]-thymidine content was analyzed by the use of […].
In this experiment, we examined whether dopamine acts on Treg and alters their suppressive effect on Teff. Suppression of proliferation of Teff, assayed by [^3H]thymidine incorporation, was used as a measure of suppressive effect of Treg (Thornton and Shevach, 1998).
Shevach, 1998, 2000). Inhibition of Treg proliferation, assayed by [^3H]thymidine incorporation, can therefore be taken as a measure of the suppressive effect. We examined the ability of major neurotransmitters and neuropeptides (dopamine, norepinephrine, substance P, and serotonin) to alleviate the Treg-induced suppression of Teff in vitro. Each compound was tested at several concentrations. […] After incubating the activated Treg for 2 h with a neurotransmitter or a neuropeptide, we washed the cells and then co-cultured them with Teff.

[11] = Teff incubated 2 h with 10^−5 M

## NCCc1ccc(O)c(O)c1 [dopamine, 3,4-dihydroxyphenethylamine]
[1]
  Migration pattern of mixed T cell population towards SDF-1: did not alter this pattern
[2]
  Amount of IL-10 in media of Treg: significant decrease
[3]; 10^−5 M, activation 20 min
  Phosphorylated ERK in activated Treg, flow cytometry: Significantly less phosphorylated ERK
[3]; activation 20 min
  Phospho-ERK1/2 levels in Teff, Western blot: did not cause a significant change
[3]; activation with anti-CD3 and anti-CD28 for 20 min
  Phospho-ERK1/2 in activated Treg, Western blot: down-regulated
[4]
  IL-2 level secreted by Teff: not affected
  Production of IL-2 by Treg: not detected
[5]
  Viable neurons in retina (mean±SD): 1110±56 /mm^2
[6]; Treg incubated with compound
  Apoptosis, annexin V staining for phosphatidylserine: could not detect any signs of apoptosis
[6]; Treg incubated with dopamine
  Apoptotic cells (sub-G1), propidium iodide staining: No signs of apoptosis
[7]
  Expression of mRNA for CXCR-4 and CCR-8 in Treg: did not change
[8]
  Increase of D5-R transcripts in Teff: 10 fold
  Number of D5-R transcripts in Treg: unchanged
[9]
  Number of D1-R transcripts in Treg or Teff: did not significantly alter
[10]; 10^−5 M, 2 h, Treg activated 24 h with anti-CD3 and IL-2
  Proliferation of Teff co-cultured with activated Treg incubated with compound versus Treg not incubated: more than twofold higher
[10]; 10^−5 and 10^−7 M
  Inhibitory effect on Treg activity: reproduced
[10]; 10^−7 M, 2 h
  Effect on Treg suppressive activity: significant effect
[10]; 10^−9 M, 2 h
  Effect on Treg suppressive activity: no significant effect
[10]; 10^−9 M
  Inhibitory effect on Treg activity: slight and not statistically significant
[10]; [11]
  Direct effect on Teff proliferation: did not differ
  Susceptibility of Teff to Treg suppression: did not alter the susceptibility of Teff to Treg suppression
[10]; Treg activated 96 h, 10^−5 M for 2 h at end of activation
  Teff proliferation with treated versus untreated activated Treg: significantly higher
[10]; any of the concentrations tested
  Extent of effect on Treg suppressive activity: only partial
